Measurements: DBAASP
Converted amounts (≈) assume the structure as drawn. Each block holds one compound with its values, some of them ahead of it.

How the values were obtained:
Assay in all cases: ≥ marks a high value that may be exact or a test limit, other limits are often not marked, values filed in µg/mL are converted to µM
[1] = system: Staphylococcus epidermidis ATCC 12228
[2] = system: Escherichia coli ATCC 25922
[3] = system: Micrococcus luteus ATCC 10240
[4] = system: Pseudomonas aeruginosa ATCC 27853
[5] = system: Shigella dysenteriae ATCC 9752
[6] = system: Bacillus subtilis ATCC 6633
[7] = system: Staphylococcus aureus ATCC 6538P
[8] = system: Klebsiella pneumoniae ATCC 10031
[9] = system: Salmonella enterica subsp. enterica serovar Typhimurium ATCC 14028
[10] = system: Proteus mirabilis ATCC 25933
[11] = system: Enterobacter cloacae NHTCC 53001
[12] = system: Klebsiella pneumoniae KK3 9904
[13] = system: Candida albicans ATCC 90028
[14] = system: Enterococcus faecalis ATCC 29212
[15] = system: Staphylococcus aureus NCTC 8325
[16] = system: Staphylococcus epidermidis RP62A
[17] = system: Candida albicans ATCC 20032
[18] = system: Staphylococcus aureus ATCC 25923
Staphylococcus aureus = system: Staphylococcus aureus
[19] = system: Streptococcus mutans UA159
[20] = system: Streptococcus mitis ATCC 903
[21] = system: Streptococcus sanguinis NY101
[22] = system: Pseudomonas aeruginosa PAK
[23] = system: Streptococcus gordonii Challis DL1
[24] = system: Corynebacterium xerosis C875
[25] = system: Staphylococcus epidermidis C621
Escherichia coli UB1005 = system: Escherichia coli UB1005
Escherichia coli DC2 = system: Escherichia coli DC2

SMILES: CC[C@H](C)[C@H](NC(=O)CN)C(=O)N[C@@H](CC(C)C)C(=O)N[C@@H](CO)C(=O)N[C@@H](CO)C(=O)N[C@@H](Cc1ccccc1)C(=O)N[C@@H](CCCCN)C(=O)NCC(=O)N[C@H](C(=O)N[C@@H](C)C(=O)N[C@@H](CCCCN)C(=O)NCC(=O)N[C@H](C(=O)N[C@@H](C)C(=O)N[C@@H](CCCCN)C(=O)N[C@@H](CC(N)=O)C(=O)N[C@@H](CC(C)C)C(=O)N[C@@H](C)C(=O)NCC(=O)N[C@@H](CCCCN)C(=O)N[C@@H](CC(C)C)C(=O)N[C@@H](CC(C)C)C(=O)N[C@@H](CC(=O)O)C(=O)N[C@@H](CCC(=O)O)C(=O)N[C@@H](CC(C)C)C(=O)N[C@@H](CCCCN)C(=O)N[C@H]1CSSC[C@@H](C(=O)O)NC(=O)CNC(=O)[C@H]([C@@H](C)O)NC(=O)[C@H]([C@@H](C)CC)NC(=O)[C@H](CCCCN)NC1=O)C(C)C)C(C)C [GILSSFKGVAKGVAKNLAGKLLDELKCKITGC]
MIC [10]: ≥ 40 µM | MIC [2]: 5 µM (≈ 16.3 µg/mL) | MIC [11]: 5 µM (≈ 16.3 µg/mL) | MIC [4]: 5 µM (≈ 16.3 µg/mL) | MIC [12]: 10 µM (≈ 32.6 µg/mL) | MIC [13]: ≥ 40 µM | MIC [14]: > 40 µM | MIC [15]: 20 µM (≈ 65.2 µg/mL) | MIC [16]: 20 µM (≈ 65.2 µg/mL)

SMILES: CC[C@H](C)[C@H](NC(=O)[C@H](Cc1ccccc1)NC(=O)[C@H](Cc1cnc[nH]1)NC(=O)[C@H](CCCCN)NC(=O)[C@@H](NC(=O)[C@@H](N)Cc1ccccc1)[C@@H](C)CC)C(=O)N[C@@H](Cc1cnc[nH]1)C(=O)N[C@@H](CCCN=C(N)N)C(=O)N[C@@H](Cc1ccccc1)C(=O)NCC(=O)NCC(=O)NCC(=O)N[C@@H](CCCN=C(N)N)C(=O)N[C@@H](Cc1c[nH]c2ccccc12)C(=O)N[C@@H](CCCN=C(N)N)C(=O)N[C@@H](Cc1c[nH]c2ccccc12)C(=O)N[C@@H](CCCN=C(N)N)C(=O)N[C@@H](Cc1c[nH]c2ccccc12)C(=O)N[C@@H](Cc1ccccc1)C(N)=O [FIKHFIHRFGGGRWRWRWF]
MIC (Staphylococcus aureus): 12.4 µM (≈ 32 µg/mL) | MIC [19]: 3.09 µM (≈ 8 µg/mL) | MIC [20]: 12.4 µM (≈ 32 µg/mL) | MIC [21]: 12.4 µM (≈ 32 µg/mL) | MIC [22]: 24.1 µM (≈ 62.5 µg/mL) | MIC [23]: 12.4 µM (≈ 32 µg/mL)

SMILES: CC[C@H](C)[C@@H]1NC(=O)[C@H](CO)NC(=O)[C@H](CCCCN)NC(=O)[C@H]([C@@H](C)O)NC(=O)[C@H](Cc2c[nH]c3ccccc23)NC(=O)[C@@H](NC(=O)CNC(=O)[C@H](CCCN=C(N)N)NC(=O)[C@H](CC(C)C)NC(=O)[C@H](C)NC(=O)[C@H](C)N)CSSC[C@@H](C(=O)N2CCC[C@H]2C(=O)NCC(=O)N[C@@H](CCCCN)C(=O)N[C@@H](CCCN=C(N)N)C(=O)O)NC(=O)[C@@H]2CCCN2C(=O)[C@H](CCCCN)NC(=O)[C@@H]2CCCN2C(=O)[C@@H]2CCCN2C1=O [AALRGCWTKSIPPKPCPGKR]
MIC [2]: 46.2 µM (≈ 100 µg/mL) | MIC [17]: ≥ 46.2 µM | MIC [18]: 5.8 µM (≈ 12.6 µg/mL) | MIC [6]: ≥ 46.2 µM

SMILES: CC[C@H](C)[C@H](NC(=O)[C@H](Cc1cnc[nH]1)NC(=O)CNC(=O)[C@H](C)NC(=O)[C@@H](NC(=O)[C@@H](NC(=O)[C@H](CCCCN)NC(=O)[C@@H](NC(=O)[C@H](Cc1ccccc1)NC(=O)[C@H](C)NC(=O)[C@H](CCCCN)NC(=O)[C@H](C)NC(=O)[C@H](C)NC(=O)CNC(=O)[C@H](CCCCN)NC(=O)[C@H](CC(C)C)NC(=O)[C@@H](NC(=O)[C@H](CC(=O)O)NC(=O)[C@H](CCCN=C(N)N)NC(=O)[C@H](Cc1ccccc1)NC(=O)CN)C(C)C)C(C)C)[C@@H](C)O)C(C)C)C(=O)N[C@@H](C)C(=O)N[C@@H](CC(N)=O)C(N)=O [GFRDVLKGAAKAFVKTVAGHIAN]
MIC [10]: ≥ 100 µM | MIC (Staphylococcus aureus): 32 µM (≈ 75.8 µg/mL) | MIC [2]: 3 µM (≈ 7.11 µg/mL) | MIC [11]: 6 µM (≈ 14.2 µg/mL) | MIC [4]: 25 µM (≈ 59.2 µg/mL) | MIC [12]: 6 µM (≈ 14.2 µg/mL) | MIC [13]: ≥ 100 µM | MIC [14]: > 100 µM | MIC [15]: ≥ 100 µM | MIC [16]: ≥ 50 µM

SMILES: CC[C@H](C)[C@H](NC(=O)CN)C(=O)NCC(=O)NCC(=O)N[C@H](C(=O)N[C@@H](CC(C)C)C(=O)N[C@@H](CC(C)C)C(=O)N[C@@H](CO)C(=O)N[C@@H](C)C(=O)NCC(=O)N[C@@H](CCCCN)C(=O)N[C@@H](C)C(=O)N[C@@H](C)C(=O)N[C@@H](CC(C)C)C(=O)N[C@@H](CCCCN)C(=O)NCC(=O)N[C@@H](CC(C)C)C(=O)N[C@H](C(=O)N[C@@H](CCCCN)C(=O)N[C@H](C(=O)N[C@@H](CC(C)C)C(=O)N[C@@H](C)C(=O)N[C@@H](CCC(=O)O)C(=O)N[C@@H](CCCCN)C(=O)N[C@@H](Cc1ccc(O)cc1)C(=O)N[C@@H](C)C(=O)N[C@@H](CC(N)=O)C(N)=O)C(C)C)[C@@H](C)O)C(C)C [GIGGVLLSAGKAALKGLTKVLAEKYAN]
MIC [2]: > 37.8 µM | MIC [17]: ≥ 37.8 µM | MIC [18]: 7.11 µM (≈ 18.8 µg/mL) | MIC [6]: ≥ 37.8 µM

More lines, now with the values ahead:

MIC [1]: > 215 µM | MIC [2]: > 215 µM | MIC [3]: 26.9 µM (≈ 25 µg/mL) | MIC [4]: > 215 µM | MIC [5]: ≥ 108 µM | MIC [6]: ≥ 108 µM | MIC [7]: ≥ 215 µM | MIC [8]: ≥ 215 µM | MIC [9]: > 215 µM
SMILES: CC(C)C[C@H](NC(=O)[C@H](Cc1c[nH]c2ccccc12)NC(=O)[C@H](CCCCN)NC(=O)[C@H](CC(C)C)NC(=O)[C@@H](N)CC(C)C)C(=O)N[C@@H](CCCCN)C(=O)N[C@@H](CCCCN)C(N)=O [LLKWLKK]

MIC [2]: > 34.5 µM | MIC [17]: ≥ 34.5 µM | MIC [18]: 12.9 µM (≈ 37.5 µg/mL) | MIC [6]: ≥ 34.5 µM
SMILES: CC[C@H](C)[C@H](NC(=O)[C@H](CCCCN)NC(=O)[C@H](C)NC(=O)CNC(=O)[C@@H](NC(=O)[C@@H](N)CO)[C@@H](C)CC)C(=O)N[C@@H](CC(C)C)C(=O)NCC(=O)NCC(=O)N[C@H](C(=O)N[C@@H](CCCCN)C(=O)N[C@H](C(=O)N[C@@H](Cc1ccccc1)C(=O)N[C@@H](Cc1ccccc1)C(=O)N[C@@H](CCCCN)C(=O)NCC(=O)N[C@@H](C)C(=O)N[C@@H](CC(C)C)C(=O)N[C@@H](CCCCN)C(=O)N[C@@H](CCC(=O)O)C(=O)N[C@@H](CC(C)C)C(=O)N[C@@H](C)C(=O)N[C@@H](Cc1ccccc1)C(=O)N[C@H](C(=O)N[C@@H](Cc1ccc(O)cc1)C(=O)N[C@@H](CC(C)C)C(=O)N[C@@H](CCC(N)=O)C(N)=O)[C@@H](C)O)[C@@H](C)O)C(C)C [SIGAKILGGVKTFFKGALKELAFTYLQ]

MIC [24]: 0.25 µM (≈ 0.632 µg/mL) | MIC [25]: 8 µM (≈ 20.2 µg/mL) | MIC (Escherichia coli UB1005): ≥ 32 µM | MIC (Escherichia coli DC2): 16 µM (≈ 40.4 µg/mL)
SMILES: C[C@H](NC(=O)[C@H](C)NC(=O)[C@H](C)NC(=O)[C@H](Cc1ccc(O)cc1)NC(=O)[C@H](C)NC(=O)[C@H](C)NC(=O)[C@H](C)NC(=O)[C@H](CCCCN)NC(=O)[C@@H](N)CCCCN)C(=O)N[C@@H](C)C(=O)N[C@@H](C)C(=O)N[C@@H](Cc1ccc(O)cc1)C(=O)N[C@@H](C)C(=O)N[C@@H](C)C(=O)N[C@@H](Cc1c[nH]c2ccccc12)C(=O)N[C@@H](C)C(=O)N[C@@H](C)C(=O)N[C@@H](Cc1ccc(O)cc1)C(=O)N[C@@H](C)C(=O)N[C@@H](C)C(=O)N[C@@H](C)C(=O)N[C@@H](CCCCN)C(=O)N[C@@H](CCCCN)C(=O)N[C@@H](CCCCN)C(=O)N[C@@H](CCCCN)C(N)=O [KKAAAYAAAAAYAAWAAYAAAKKKK]
